Reference: PMC7083837 (Nature Communications, 2020)
Several values for one entry are separate records, joined by “and”; a condition that tells them apart may be missing. Identical values can stand only once.

Key:
Assay in all cases: [3H]IMI dissociation rate assay
Type in all cases: binding
SERT A331D = target: T1, SERT A331D (Homo sapiens, UniProt P31645, A331D); conditions: for [^3H]IMI dissociation relative to control (source data Fig 4B): A331D
T1 construct: expressed in transfected cells; host or cells: COS-7
Experimental: (§1) All mutations were confirmed by DNA sequencing. The used primers were
(§2) The allosteric potency was calculated as previously described.

SERT I179F = target: T2, SERT I179F (Homo sapiens, UniProt P31645, I179F)
T2 construct: expressed in transfected cells; host or cells: COS-7
Experimental: as §1, §2

SERT D328N = target: T3, SERT D328N (Homo sapiens, UniProt P31645, D328N)
T3 construct: expressed in transfected cells; host or cells: COS-7
Experimental: as §1, §2

SERT A486E = target: T4, SERT A486E (Homo sapiens, UniProt P31645, A486E)
T4 construct: expressed in transfected cells; host or cells: COS-7
Experimental: as §1, §2

SERT F556R = target: T5, SERT F556R (Homo sapiens, UniProt P31645, F556R)
T5 construct: expressed in transfected cells; host or cells: COS-7
Experimental: as §1, §2

SERT E494K = target: T6, SERT E494K (Homo sapiens, UniProt P31645, E494K)
T6 construct: expressed in transfected cells; host or cells: COS-7
Experimental: as §1, §2

SERT A486E-K490A = target: T7, SERT A486E-K490A (Homo sapiens, UniProt P31645, A486E/K490A)
T7 construct: expressed in transfected cells; host or cells: COS-7
Experimental: as §1, §2

SERT F556L = target: T8, SERT F556L (Homo sapiens, UniProt P31645, F556L)
T8 construct: expressed in transfected cells; host or cells: COS-7
Experimental: as §1, §2

SERT L406E = target: T9, SERT L406E (Homo sapiens, UniProt P31645, L406E)
T9 construct: expressed in transfected cells; host or cells: COS-7
Experimental: as §1, §2

SERT R104K = target: T10, SERT R104K (Homo sapiens, UniProt P31645, R104K)
T10 construct: expressed in transfected cells; host or cells: COS-7
Experimental: as §1, §2

T6 sequence (P31645 whole entry E494K): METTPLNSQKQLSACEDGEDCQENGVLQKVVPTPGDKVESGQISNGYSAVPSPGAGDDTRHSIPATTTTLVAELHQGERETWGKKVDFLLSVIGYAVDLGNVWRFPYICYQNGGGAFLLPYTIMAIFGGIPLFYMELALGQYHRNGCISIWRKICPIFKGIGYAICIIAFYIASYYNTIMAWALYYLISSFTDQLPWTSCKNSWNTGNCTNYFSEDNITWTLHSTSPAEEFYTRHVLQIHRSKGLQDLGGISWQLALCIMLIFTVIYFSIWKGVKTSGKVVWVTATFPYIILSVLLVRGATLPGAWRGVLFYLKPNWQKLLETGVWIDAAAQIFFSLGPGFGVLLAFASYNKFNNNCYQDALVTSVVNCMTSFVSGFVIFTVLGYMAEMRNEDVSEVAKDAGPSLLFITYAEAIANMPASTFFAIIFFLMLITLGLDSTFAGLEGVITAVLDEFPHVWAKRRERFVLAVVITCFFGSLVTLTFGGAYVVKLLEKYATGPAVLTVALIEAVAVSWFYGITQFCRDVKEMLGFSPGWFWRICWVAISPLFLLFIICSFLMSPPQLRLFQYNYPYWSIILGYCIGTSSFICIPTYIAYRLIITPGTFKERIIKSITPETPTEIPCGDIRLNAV
T2 sequence (P31645 whole entry I179F): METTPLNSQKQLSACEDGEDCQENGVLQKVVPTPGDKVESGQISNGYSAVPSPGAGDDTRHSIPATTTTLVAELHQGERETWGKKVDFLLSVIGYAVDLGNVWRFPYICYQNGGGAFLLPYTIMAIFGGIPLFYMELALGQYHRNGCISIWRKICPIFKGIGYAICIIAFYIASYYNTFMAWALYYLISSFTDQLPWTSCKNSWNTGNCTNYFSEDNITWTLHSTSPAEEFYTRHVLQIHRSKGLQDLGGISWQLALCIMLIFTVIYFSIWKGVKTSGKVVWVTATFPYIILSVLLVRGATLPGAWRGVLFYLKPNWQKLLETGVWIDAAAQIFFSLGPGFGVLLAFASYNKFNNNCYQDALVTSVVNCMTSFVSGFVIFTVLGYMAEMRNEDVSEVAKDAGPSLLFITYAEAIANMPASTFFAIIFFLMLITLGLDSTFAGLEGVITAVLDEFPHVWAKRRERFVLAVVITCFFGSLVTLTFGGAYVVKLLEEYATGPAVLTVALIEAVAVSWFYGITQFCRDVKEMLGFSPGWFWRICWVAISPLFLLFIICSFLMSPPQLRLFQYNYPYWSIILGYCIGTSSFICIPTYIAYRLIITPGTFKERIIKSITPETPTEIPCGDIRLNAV
T9 sequence (P31645 whole entry L406E): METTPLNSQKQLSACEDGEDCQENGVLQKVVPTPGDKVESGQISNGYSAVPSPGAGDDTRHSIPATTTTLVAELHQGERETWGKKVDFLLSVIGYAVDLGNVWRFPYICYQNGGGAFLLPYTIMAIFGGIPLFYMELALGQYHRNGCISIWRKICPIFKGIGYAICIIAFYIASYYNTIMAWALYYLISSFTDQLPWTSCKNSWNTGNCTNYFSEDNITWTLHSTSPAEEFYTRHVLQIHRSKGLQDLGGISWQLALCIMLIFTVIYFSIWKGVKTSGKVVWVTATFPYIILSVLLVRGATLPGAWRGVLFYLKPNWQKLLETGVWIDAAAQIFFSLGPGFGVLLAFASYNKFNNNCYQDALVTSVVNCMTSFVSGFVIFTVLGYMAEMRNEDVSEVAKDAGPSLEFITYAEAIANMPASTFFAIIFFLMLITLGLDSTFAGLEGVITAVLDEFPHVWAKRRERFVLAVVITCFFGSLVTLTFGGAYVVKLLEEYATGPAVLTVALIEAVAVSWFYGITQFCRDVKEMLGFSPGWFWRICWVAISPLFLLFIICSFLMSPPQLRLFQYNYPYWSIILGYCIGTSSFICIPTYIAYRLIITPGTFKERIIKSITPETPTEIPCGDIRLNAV
T10 sequence (P31645 whole entry R104K): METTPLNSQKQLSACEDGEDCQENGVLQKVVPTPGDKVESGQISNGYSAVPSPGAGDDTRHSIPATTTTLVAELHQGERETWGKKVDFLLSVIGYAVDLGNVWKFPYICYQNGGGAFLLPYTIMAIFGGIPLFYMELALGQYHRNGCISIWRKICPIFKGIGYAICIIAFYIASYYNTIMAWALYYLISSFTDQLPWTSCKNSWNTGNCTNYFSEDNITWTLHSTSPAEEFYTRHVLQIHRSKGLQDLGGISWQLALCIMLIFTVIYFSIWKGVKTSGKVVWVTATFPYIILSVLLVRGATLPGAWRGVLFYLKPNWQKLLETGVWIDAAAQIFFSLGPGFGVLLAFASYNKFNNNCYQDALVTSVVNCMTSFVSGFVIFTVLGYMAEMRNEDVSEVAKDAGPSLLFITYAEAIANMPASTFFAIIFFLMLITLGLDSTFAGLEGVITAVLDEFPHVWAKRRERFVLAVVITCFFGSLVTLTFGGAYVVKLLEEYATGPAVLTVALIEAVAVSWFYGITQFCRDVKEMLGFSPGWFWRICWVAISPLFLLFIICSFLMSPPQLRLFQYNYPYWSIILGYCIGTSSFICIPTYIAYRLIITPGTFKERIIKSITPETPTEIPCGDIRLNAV
T1 sequence (P31645 whole entry A331D): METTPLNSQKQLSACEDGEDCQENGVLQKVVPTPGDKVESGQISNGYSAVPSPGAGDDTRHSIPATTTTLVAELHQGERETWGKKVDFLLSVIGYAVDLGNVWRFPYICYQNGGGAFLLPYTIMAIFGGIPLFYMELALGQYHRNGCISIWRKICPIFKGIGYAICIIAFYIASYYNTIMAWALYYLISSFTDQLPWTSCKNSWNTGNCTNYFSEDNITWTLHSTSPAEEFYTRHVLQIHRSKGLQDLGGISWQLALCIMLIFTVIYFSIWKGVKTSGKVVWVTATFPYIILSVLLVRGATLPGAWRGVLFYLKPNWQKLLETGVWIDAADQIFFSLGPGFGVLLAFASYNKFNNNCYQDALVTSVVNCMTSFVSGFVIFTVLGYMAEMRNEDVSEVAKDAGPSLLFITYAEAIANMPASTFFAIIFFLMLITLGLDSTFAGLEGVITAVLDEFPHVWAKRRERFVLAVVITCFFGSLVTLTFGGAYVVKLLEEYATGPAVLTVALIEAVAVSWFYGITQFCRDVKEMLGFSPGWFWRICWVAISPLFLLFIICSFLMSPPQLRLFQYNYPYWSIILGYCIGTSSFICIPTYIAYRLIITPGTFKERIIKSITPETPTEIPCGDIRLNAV
T5 sequence (P31645 whole entry F556R): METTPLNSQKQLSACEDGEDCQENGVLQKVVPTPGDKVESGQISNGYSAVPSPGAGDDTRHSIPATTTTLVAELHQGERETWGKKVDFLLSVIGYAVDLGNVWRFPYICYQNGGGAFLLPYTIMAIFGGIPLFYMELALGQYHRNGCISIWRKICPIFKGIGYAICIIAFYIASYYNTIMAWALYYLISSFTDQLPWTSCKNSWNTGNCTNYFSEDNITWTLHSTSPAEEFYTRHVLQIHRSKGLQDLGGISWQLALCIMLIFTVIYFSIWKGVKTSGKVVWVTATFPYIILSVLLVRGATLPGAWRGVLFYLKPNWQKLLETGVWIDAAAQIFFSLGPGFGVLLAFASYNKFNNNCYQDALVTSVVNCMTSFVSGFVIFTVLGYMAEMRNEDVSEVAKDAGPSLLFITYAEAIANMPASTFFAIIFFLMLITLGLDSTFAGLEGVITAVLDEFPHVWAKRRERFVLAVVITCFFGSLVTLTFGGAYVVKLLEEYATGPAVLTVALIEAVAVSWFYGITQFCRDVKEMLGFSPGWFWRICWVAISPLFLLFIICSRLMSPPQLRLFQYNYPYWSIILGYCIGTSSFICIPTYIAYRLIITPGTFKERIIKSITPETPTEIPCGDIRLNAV
T7 sequence (P31645 whole entry A486E/K490A): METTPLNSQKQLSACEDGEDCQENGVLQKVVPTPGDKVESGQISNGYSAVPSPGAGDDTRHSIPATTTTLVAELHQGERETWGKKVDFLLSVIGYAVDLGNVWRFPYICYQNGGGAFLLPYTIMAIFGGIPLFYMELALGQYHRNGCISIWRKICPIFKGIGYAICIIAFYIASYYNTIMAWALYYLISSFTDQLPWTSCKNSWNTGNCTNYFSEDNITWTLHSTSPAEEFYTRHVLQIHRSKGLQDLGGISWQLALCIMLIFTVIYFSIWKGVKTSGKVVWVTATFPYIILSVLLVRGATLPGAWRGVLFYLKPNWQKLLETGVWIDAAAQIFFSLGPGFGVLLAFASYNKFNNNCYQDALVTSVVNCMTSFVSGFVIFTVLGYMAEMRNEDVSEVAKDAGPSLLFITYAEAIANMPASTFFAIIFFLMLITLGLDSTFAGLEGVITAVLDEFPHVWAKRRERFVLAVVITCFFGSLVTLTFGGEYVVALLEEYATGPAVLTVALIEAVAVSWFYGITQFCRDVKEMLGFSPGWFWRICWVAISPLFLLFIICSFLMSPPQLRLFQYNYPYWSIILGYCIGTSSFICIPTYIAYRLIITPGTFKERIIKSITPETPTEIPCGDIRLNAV
T4 sequence (P31645 whole entry A486E): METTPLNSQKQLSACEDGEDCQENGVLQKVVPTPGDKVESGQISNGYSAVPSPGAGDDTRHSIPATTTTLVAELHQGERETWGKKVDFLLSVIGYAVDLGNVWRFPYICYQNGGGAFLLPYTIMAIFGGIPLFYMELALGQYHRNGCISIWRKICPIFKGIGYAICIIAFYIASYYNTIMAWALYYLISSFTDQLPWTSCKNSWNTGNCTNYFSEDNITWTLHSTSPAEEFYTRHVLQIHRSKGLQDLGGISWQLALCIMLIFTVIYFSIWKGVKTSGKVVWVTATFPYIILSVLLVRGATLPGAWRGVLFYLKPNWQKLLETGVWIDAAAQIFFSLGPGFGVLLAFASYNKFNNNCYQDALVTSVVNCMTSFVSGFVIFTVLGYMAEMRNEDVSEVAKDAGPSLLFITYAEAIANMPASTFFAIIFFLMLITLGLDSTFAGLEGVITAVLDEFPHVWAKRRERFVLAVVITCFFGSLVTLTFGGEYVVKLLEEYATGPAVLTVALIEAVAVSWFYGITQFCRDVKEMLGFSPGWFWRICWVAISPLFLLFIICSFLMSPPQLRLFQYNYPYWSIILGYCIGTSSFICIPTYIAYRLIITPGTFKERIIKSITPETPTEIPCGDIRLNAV

In the case of `NC(=O)c1ccc2c(c1)CO[C@@]2(CCCN1CCC(c2ccc3ccc(=O)[nH]c3c2)CC1)c1ccc(F)cc1` [Lu AF60097, (S)-1-(4-fluorophenyl)-1-(3-(4-(2-oxo-1,2-dihydroquinolin-7-yl)piperidin-1-yl)propyl)-1,3-dihydroisobenzofuran-5-carboxamide], the “[^3H]IMI dissociation relative to control (source data Fig 4B)” value (SERT A331D; log conc -5.432) is reported as 0.7451 and 0.6969 and 0.749, the “[^3H]IMI dissociation relative to control (source data Fig 4B)” value (SERT A331D; log conc -5.91) is reported as 0.8665 and 0.8882 and 0.9518 and the “[^3H]IMI dissociation relative to control (source data Fig 4B)” value (SERT A331D; log conc -6.386) is reported as 0.9951 and 1.0052 and 1.0336. For the same compound, the “[^3H]IMI dissociation relative to control (source data Fig 4B)” value (SERT A331D; log conc -6.863) was 1.0294 and 1.1129 and 0.9351, the “[^3H]IMI dissociation relative to control (source data Fig 4B)” value (SERT A331D; log conc -7.34) was 0.9855 and 0.9441 and 1.0485 and the IC50 (SERT A331D; SERT A331D (TM6), read-out: Lu AF60097 allosteric potency ([^3H]IMI dissociation IC50)) was 9100 nM. The “ΔAP (mut/WT), change in allosteric potency relative to SERT WT” value (SERT I179F; I179F, [^3H]IMI dissociation) was 14, the “[^3H]IMI dissociation relative to control (source data Fig 4B)” value (SERT I179F; I179F, log conc -7.817) was 0.8727 and 0.9098 and the IC50 (SERT I179F; SERT I179F (TM3), read-out: Lu AF60097 allosteric potency ([^3H]IMI dissociation IC50)) was 440 nM. The “ΔAP (mut/WT), change in allosteric potency relative to SERT WT” value (SERT D328N; D328N, [^3H]IMI dissociation) was 1.7, the IC50 (SERT D328N; SERT D328N (TM6), read-out: Lu AF60097 allosteric potency ([^3H]IMI dissociation IC50)) was 54 nM and the “ΔAP (mut/WT), change in allosteric potency relative to SERT WT” value (SERT A486E; A486E, [^3H]IMI dissociation) was 15. For the same compound, the IC50 (SERT A486E; SERT A486E (TM10), read-out: Lu AF60097 allosteric potency ([^3H]IMI dissociation IC50)) was 470 nM, the “ΔAP (mut/WT), change in allosteric potency relative to SERT WT” value (SERT F556R; F556R, [^3H]IMI dissociation) was over 300 and the “Lu AF60097 allosteric potency ([^3H]IMI dissociation IC50)” value (SERT F556R; SERT F556R (TM11)) was “complete ablation of the allosteric potency”. The IC50 (SERT F556R; SERT F556R (TM11), read-out: Lu AF60097 allosteric potency ([^3H]IMI dissociation IC50)) was at least 10000 nM, the “ΔAP (mut/WT), change in allosteric potency relative to SERT WT” value (SERT E494K; E494K, [^3H]IMI dissociation) was 286 and the “[^3H]IMI dissociation relative to control (source data Fig 4B)” value (SERT E494K; E494K, log conc -5.432) was 0.0801 and 0.1174 and 0.0764. For the same compound, the “[^3H]IMI dissociation relative to control (source data Fig 4B)” value (SERT E494K; E494K, log conc -5.91) was 0.1958 and 0.2217 and 0.1263, the “[^3H]IMI dissociation relative to control (source data Fig 4B)” value (SERT E494K; E494K, log conc -6.386) was 0.3078 and 0.3762 and 0.3174 and the “[^3H]IMI dissociation relative to control (source data Fig 4B)” value (SERT E494K; E494K, log conc -6.863) was 0.5705 and 0.5743 and 0.4488. For the same compound, the “[^3H]IMI dissociation relative to control (source data Fig 4B)” value (SERT E494K; E494K, log conc -7.34) was 0.7153 and 0.7476 and 0.7791, the “[^3H]IMI dissociation relative to control (source data Fig 4B)” value (SERT E494K; E494K, log conc -7.817) was 0.8258 and 0.83 and 0.9008 and the “[^3H]IMI dissociation relative to control (source data Fig 4B)” value (SERT E494K; E494K, log conc -8.294) was 0.8606 and 0.9262 and 0.8913. For the same compound, the IC50 (SERT E494K; SERT E494K (TM10), read-out: Lu AF60097 allosteric potency ([^3H]IMI dissociation IC50)) was 8900 nM, the “ΔAP (mut/WT), change in allosteric potency relative to SERT WT” value (SERT A486E-K490A; A486E-K490A, [^3H]IMI dissociation) was 77 and the “[^3H]IMI dissociation relative to control (source data Fig 4B)” value (SERT A486E-K490A; A486E-K490A, log conc -4.955) was 0.2089 and 0.1837 and 0.2062. The “[^3H]IMI dissociation relative to control (source data Fig 4B)” value (SERT A486E-K490A; A486E-K490A, log conc -5.432) was 0.4714 and 0.3471 and 0.3282, the “[^3H]IMI dissociation relative to control (source data Fig 4B)” value (SERT A486E-K490A; A486E-K490A, log conc -5.91) was 0.664 and 0.6181 and 0.6285 and the “[^3H]IMI dissociation relative to control (source data Fig 4B)” value (SERT A486E-K490A; A486E-K490A, log conc -6.386) was 0.93 and 0.8402 and 0.7554. The “[^3H]IMI dissociation relative to control (source data Fig 4B)” value (SERT A486E-K490A; A486E-K490A, log conc -6.863) was 1.01 and 0.967 and 0.9554, the “[^3H]IMI dissociation relative to control (source data Fig 4B)” value (SERT A486E-K490A; A486E-K490A, log conc -7.34) was 1 and 1.03 and 0.8514 and the “[^3H]IMI dissociation relative to control (source data Fig 4B)” value (SERT A486E-K490A; A486E-K490A, log conc -7.817) was 1.04 and 0.999 and 0.8949. For the same compound, the IC50 (SERT A486E-K490A; SERT A486E-K490A, read-out: Lu AF60097 allosteric potency ([^3H]IMI dissociation IC50)) was 2400 nM, the “ΔAP (mut/WT), change in allosteric potency relative to SERT WT” value (SERT F556L; F556L, [^3H]IMI dissociation) was 10 and the IC50 (SERT F556L; SERT F556L (TM11), read-out: Lu AF60097 allosteric potency ([^3H]IMI dissociation IC50)) was 330 nM. The “ΔAP (mut/WT), change in allosteric potency relative to SERT WT” value (SERT L406E; L406E, [^3H]IMI dissociation) was 21, the “[^3H]IMI dissociation relative to control (source data Fig 4B)” value (SERT L406E; L406E, log conc -5.91) was 0.3505 and 0.3638 and 0.3072 and the “[^3H]IMI dissociation relative to control (source data Fig 4B)” value (SERT L406E; L406E, log conc -6.386) was 0.6157 and 0.6402 and 0.5827. The “[^3H]IMI dissociation relative to control (source data Fig 4B)” value (SERT L406E; L406E, log conc -6.863) was 0.8533 and 0.8586 and 0.8107, the “[^3H]IMI dissociation relative to control (source data Fig 4B)” value (SERT L406E; L406E, log conc -7.34) was 0.9622 and 0.9861 and 1.0073 and the “[^3H]IMI dissociation relative to control (source data Fig 4B)” value (SERT L406E; L406E, log conc -7.817) was 1.016 and 1.0012 and 1.0446. For the same compound, the IC50 (SERT L406E; SERT L406E (EL4), read-out: Lu AF60097 allosteric potency ([^3H]IMI dissociation IC50)) was 650 nM, the “ΔAP (mut/WT), change in allosteric potency relative to SERT WT” value (SERT R104K; R104K, [^3H]IMI dissociation) was 19 and the “[^3H]IMI dissociation relative to control (source data Fig 4B)” value (SERT R104K; R104K, log conc -5.91) was 0.3316 and 0.2892 and 0.4871 and 0.3865. The “[^3H]IMI dissociation relative to control (source data Fig 4B)” value (SERT R104K; R104K, log conc -6.386) was 0.5872 and 0.4706 and 0.6618 and 0.5459, the “[^3H]IMI dissociation relative to control (source data Fig 4B)” value (SERT R104K; R104K, log conc -6.863) was 0.8956 and 0.6502 and 0.7387 and 0.7045 and the “[^3H]IMI dissociation relative to control (source data Fig 4B)” value (SERT R104K; R104K, log conc -7.34) was 1.0439 and 0.7759 and 0.8174 and 0.7536. The “[^3H]IMI dissociation relative to control (source data Fig 4B)” value (SERT R104K; R104K, log conc -7.817) was 0.9753 and 0.7981 and 0.836 and 0.9683 and the IC50 (SERT R104K; SERT R104K (TM1), read-out: Lu AF60097 allosteric potency ([^3H]IMI dissociation IC50)) was 630 nM.
